Laboratory results taken from ChEMBL document CHEMBL1201862, “PubChem BioAssay data set” (2004).
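Dose response: 5 concentrations. Exposure: 48 h. Format: 96-well plates. Endpoint: linear interpolation; highest concentration if not reached. At the GI50, growth is halved.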 Calls of active or inactive are those of the source. Rule as the data show it: active = GI50 up to about 1.1 µM and inactive = higher.

Assays:
Experiment in all cases: NCI anticancer screen, dose series, 48 h
786-0 = tested on: 786-0
HT-29 = tested on: HT-29
K562 = tested on: K562
A498 = tested on: A498
DU-145 = tested on: DU-145
SNB-19 = tested on: SNB-19
SR = tested on: SR
CAKI-1 = tested on: CAKI-1
SN12C = tested on: SN12C
HCC 2998 = tested on: HCC 2998
BT-549 = tested on: BT-549
MDA-MB-231 = tested on: MDA-MB-231
Hs-578T = tested on: Hs-578T
HCT-116 = tested on: HCT-116
OVCAR-5 = tested on: OVCAR-5
UACC-257 = tested on: UACC-257
LOX IMVI = tested on: LOX IMVI
MOLT-4 = tested on: MOLT-4
SNB-75 = tested on: SNB-75
OVCAR-4 = tested on: OVCAR-4
NCI/ADR-RES = tested on: NCI/ADR-RES
PC-3 = tested on: PC-3
MDA-MB-435 = tested on: MDA-MB-435
RXF 393 = tested on: RXF 393
ACHN = tested on: ACHN
HL-60 = tested on: HL-60
OVCAR-8 = tested on: OVCAR-8
SK-OV-3 = tested on: SK-OV-3
Malme-3M = tested on: Malme-3M
UACC-62 = tested on: UACC-62
TK-10 = tested on: TK-10
KM12 = tested on: KM12
SW-620 = tested on: SW-620
IGROV-1 = tested on: IGROV-1
NCI-H226 = tested on: NCI-H226
MDA-N = tested on: MDA-N
SF-295 = tested on: SF-295
MCF7 = tested on: MCF7
HCT-15 = tested on: HCT-15
SK-MEL-5 = tested on: SK-MEL-5
NCI-H522 = tested on: NCI-H522
SK-MEL-2 = tested on: SK-MEL-2
CCRF-CEM = tested on: CCRF-CEM
SK-MEL-28 = tested on: SK-MEL-28
SF-268 = tested on: SF-268
HOP-92 = tested on: HOP-92
UO-31 = tested on: UO-31
COLO 205 = tested on: COLO 205
U-251 = tested on: U-251
T47D = tested on: T47D
SF-539 = tested on: SF-539
HOP-62 = tested on: HOP-62
A549 = tested on: A549
OVCAR-3 = tested on: OVCAR-3
NCI-H460 = tested on: NCI-H460
NCI-H23 = tested on: NCI-H23
EKVX = tested on: EKVX
M14 = tested on: M14
RPMI-8226 = tested on: RPMI-8226

## N[C@H](C(=O)O)[C@@H]1CC(Br)=NO1
786-0
  GI50: 13 µM (inactive)
HT-29
  GI50: 10.1 µM (inactive)
K562
  GI50: 20.6 µM (inactive)
A498
  GI50: 18.1 µM (inactive)
DU-145
  GI50: 5.57 µM (inactive)
SNB-19
  GI50: 36.4 µM (inactive)
SR
  GI50: 3.66 µM (inactive)
CAKI-1
  GI50: 18.4 µM (inactive)
SN12C
  GI50: 38.3 µM (inactive)
HCC 2998
  GI50: 22.7 µM (inactive)
BT-549
  GI50: > 27 µM (inactive)
MDA-MB-231
  GI50: > 100 µM (inactive)
Hs-578T
  GI50: 8.95 µM (inactive)
HCT-116
  GI50: 5.6 µM (inactive)
OVCAR-5
  GI50: 16.8 µM (inactive)
UACC-257
  GI50: 54.2 µM (inactive)
LOX IMVI
  GI50: > 100 µM (inactive)
MOLT-4
  GI50: 22.6 µM (inactive)
SNB-75
  GI50: 16.8 µM (inactive)
OVCAR-4
  GI50: 21.9 µM (inactive)
NCI/ADR-RES
  GI50: 39.7 µM (inactive)
PC-3
  GI50: 23.6 µM (inactive)
MDA-MB-435
  GI50: 19.7 µM (inactive)
RXF 393
  GI50: 11.9 µM (inactive)
ACHN
  GI50: 8.22 µM (inactive)
HL-60
  GI50: > 48.4 µM (inactive)
OVCAR-8
  GI50: > 25 µM (inactive)
SK-OV-3
  GI50: 8.05 µM (inactive)
Malme-3M
  GI50: > 25.1 µM (inactive)
UACC-62
  GI50: 27.7 µM (inactive)
TK-10
  GI50: 16 µM (inactive)
KM12
  GI50: 10.6 µM (inactive)
SW-620
  GI50: 5.87 µM (inactive)
IGROV-1
  GI50: 19 µM (inactive)
NCI-H226
  GI50: > 96.6 µM (inactive)
MDA-N
  GI50: 8.41 µM (inactive)
SF-295
  GI50: 6.28 µM (inactive)
MCF7
  GI50: 3.42 µM (inactive)
HCT-15
  GI50: 6.38 µM
SK-MEL-5
  GI50: 14.5 µM (inactive)
NCI-H522
  GI50: > 32 µM (inactive)
SK-MEL-2
  GI50: > 91.8 µM (inactive)
CCRF-CEM
  GI50: 14.1 µM (inactive)
SK-MEL-28
  GI50: 32.7 µM (inactive)
SF-268
  GI50: 11.6 µM (inactive)
HOP-92
  GI50: > 29.4 µM (inactive)
UO-31
  GI50: 6.46 µM (inactive)
COLO 205
  GI50: 33.3 µM (inactive)
U-251
  GI50: 10.4 µM (inactive)
T47D
  GI50: > 34.1 µM (inactive)
SF-539
  GI50: 5.21 µM (inactive)
HOP-62
  GI50: 12.2 µM (inactive)
A549
  GI50: 3.66 µM (inactive)
OVCAR-3
  GI50: 16.5 µM (inactive)
NCI-H460
  GI50: 4.31 µM (inactive)
NCI-H23
  GI50: > 35.7 µM (inactive)
EKVX
  GI50: 10.9 µM (inactive)
M14
  GI50: 11.5 µM (inactive)

## CC(=O)O[C@H]1C(=O)[C@@]2(C)[C@H]([C@H](OC(=O)c3ccccc3)[C@]3(O)C[C@H](OC(=O)[C@H](OC(=O)OCCC(O)CO)[C@@H](NC(=O)c4ccccc4)c4ccccc4)C(C)=C1C3(C)C)[C@]1(OC(C)=O)CO[C@@H]1C[C@@H]2O (stereo partly drawn)
786-0
  GI50: 0.0105 µM (active)
HT-29
  GI50: < 0.01 µM (active)
K562
  GI50: < 0.01 µM (active)
A498
  GI50: 0.141 µM (active)
DU-145
  GI50: < 0.01 µM (active)
SNB-19
  GI50: < 0.01 µM (active)
SR
  GI50: < 0.01 µM (active)
CAKI-1
  GI50: 0.631 µM (active)
SN12C
  GI50: < 0.01 µM (active)
HCC 2998
  GI50: < 0.01 µM (active)
BT-549
  GI50: < 0.0159 µM (active)
MDA-MB-231
  GI50: < 0.0135 µM (active)
Hs-578T
  GI50: < 0.01 µM (active)
HCT-116
  GI50: < 0.01 µM (active)
OVCAR-5
  GI50: < 0.016 µM (active)
UACC-257
  GI50: < 0.01 µM (active)
LOX IMVI
  GI50: < 0.01 µM (active)
MOLT-4
  GI50: < 0.0109 µM (active)
SNB-75
  GI50: < 0.0114 µM (active)
OVCAR-4
  GI50: 17.4 µM (inactive)
NCI/ADR-RES
  GI50: 3.56 µM (inactive)
PC-3
  GI50: < 0.0128 µM (active)
MDA-MB-435
  GI50: < 0.01 µM (active)
RXF 393
  GI50: < 0.037 µM (active)
ACHN
  GI50: 1.09 µM (active)
HL-60
  GI50: < 0.01 µM (active)
OVCAR-8
  GI50: < 0.0221 µM (active)
SK-OV-3
  GI50: 0.0104 µM (active)
UACC-62
  GI50: < 0.01 µM (active)
TK-10
  GI50: 0.998 µM (active)
KM12
  GI50: < 0.01 µM (active)
SW-620
  GI50: < 0.01 µM (active)
IGROV-1
  GI50: < 0.01 µM (active)
NCI-H226
  GI50: < 0.01 µM (active)
MDA-N
  GI50: < 0.01 µM (active)
SF-295
  GI50: 0.0192 µM (active)
MCF7
  GI50: < 0.01 µM (active)
HCT-15
  GI50: 0.303 µM
SK-MEL-5
  GI50: < 0.01 µM (active)
NCI-H522
  GI50: < 0.01 µM (active)
SK-MEL-2
  GI50: 29 µM (inactive)
CCRF-CEM
  GI50: < 0.01 µM (active)
SF-268
  GI50: < 0.0111 µM (active)
HOP-92
  GI50: 12.8 µM (inactive)
UO-31
  GI50: 0.989 µM (active)
COLO 205
  GI50: < 0.01 µM (active)
U-251
  GI50: < 0.01 µM (active)
RPMI-8226
  GI50: < 0.01 µM (active)
T47D
  GI50: < 0.01 µM (active)
SF-539
  GI50: < 0.01 µM (active)
HOP-62
  GI50: < 0.01 µM (active)
A549
  GI50: < 0.0103 µM (active)
OVCAR-3
  GI50: < 0.01 µM (active)
NCI-H460
  GI50: < 0.01 µM (active)
NCI-H23
  GI50: < 0.01 µM (active)
EKVX
  GI50: 0.037 µM (active)
M14
  GI50: < 0.01 µM (active)

## O=[N+]([O-])c1cccc2nccc(NCC(O)CO)c12 (stereo not drawn)
786-0
  GI50: 18 µM (inactive)
HT-29
  GI50: 14.7 µM (inactive)
K562
  GI50: 20.2 µM (inactive)
A498
  GI50: 7.66 µM (inactive)
DU-145
  GI50: 26.3 µM (inactive)
SR
  GI50: 5.06 µM (inactive)
CAKI-1
  GI50: 16 µM (inactive)
SN12C
  GI50: 16 µM (inactive)
HCC 2998
  GI50: 13.1 µM (inactive)
BT-549
  GI50: 14.2 µM (inactive)
MDA-MB-231
  GI50: 11.5 µM (inactive)
Hs-578T
  GI50: 7.8 µM (inactive)
HCT-116
  GI50: 13.4 µM (inactive)
OVCAR-5
  GI50: 21 µM (inactive)
UACC-257
  GI50: 15.2 µM (inactive)
LOX IMVI
  GI50: 21.7 µM (inactive)
MOLT-4
  GI50: 9.55 µM (inactive)
SNB-75
  GI50: 22.8 µM (inactive)
OVCAR-4
  GI50: 18.5 µM (inactive)
NCI/ADR-RES
  GI50: 25.5 µM (inactive)
PC-3
  GI50: 16.5 µM (inactive)
MDA-MB-435
  GI50: 16.6 µM (inactive)
RXF 393
  GI50: 11.6 µM (inactive)
ACHN
  GI50: 20.6 µM (inactive)
HL-60
  GI50: 1.36 µM (inactive)
OVCAR-8
  GI50: 11.6 µM (inactive)
SK-OV-3
  GI50: 25.4 µM (inactive)
Malme-3M
  GI50: 14.4 µM (inactive)
UACC-62
  GI50: 15 µM (inactive)
TK-10
  GI50: 18 µM (inactive)
KM12
  GI50: 14 µM (inactive)
SW-620
  GI50: 14.5 µM (inactive)
IGROV-1
  GI50: 16.1 µM (inactive)
NCI-H226
  GI50: 12.2 µM (inactive)
MDA-N
  GI50: 17.1 µM (inactive)
SF-295
  GI50: 21 µM (inactive)
MCF7
  GI50: 13.9 µM (inactive)
HCT-15
  GI50: 8.85 µM
SK-MEL-5
  GI50: 13.1 µM (inactive)
NCI-H522
  GI50: 7.01 µM (inactive)
SK-MEL-2
  GI50: 11.4 µM (inactive)
CCRF-CEM
  GI50: 13.3 µM (inactive)
SK-MEL-28
  GI50: 15.7 µM (inactive)
SF-268
  GI50: 19.8 µM (inactive)
HOP-92
  GI50: 20.6 µM (inactive)
UO-31
  GI50: 18.2 µM (inactive)
COLO 205
  GI50: 15 µM (inactive)
U-251
  GI50: 14.6 µM (inactive)
RPMI-8226
  GI50: 12.7 µM (inactive)
T47D
  GI50: 24.2 µM (inactive)
SF-539
  GI50: 17.7 µM (inactive)
HOP-62
  GI50: 17.6 µM (inactive)
A549
  GI50: 15.1 µM (inactive)
OVCAR-3
  GI50: 15.5 µM (inactive)
NCI-H460
  GI50: 8.18 µM (inactive)
NCI-H23
  GI50: 16 µM (inactive)
EKVX
  GI50: 14.5 µM (inactive)
M14
  GI50: 17.4 µM (inactive)
